Measurements taken from patent publication US7704971B2, “Uracil reductase inactivators” (SmithKlineBeecham Corporation, priority 1990, dated 2010).

Key:
[1] = Effect on plasma FU level, mice; type: in vivo; details: 5-FU p.o. or i.p., EU 2 mg/kg i.p. 90 minutes prior to 5-FU
Description: Mice were dosed either orally (p.o.) or interperitoneally (i.p.) with 5-fU. 5-ethynyluracil (EU) at 2mg/kg was dosed i.p. 90 minutes prior to the 5-FU.
In addition, the usual variability in plasma FU in rats orally dosed with FU at 50 mg/kg was eliminated by EU pretreatment.

uracil reductase = molecular target: T1, uracil reductase (Mus musculus, UniProt Q8CHR6); assay: Inactivation of uracil reductase in vivo (plasma uracil and thymine), mice
T1 construct: from tissue; host or cells: whole animal (mouse), endogenous enzyme
T1 sequence (Q8CHR6 1-1025): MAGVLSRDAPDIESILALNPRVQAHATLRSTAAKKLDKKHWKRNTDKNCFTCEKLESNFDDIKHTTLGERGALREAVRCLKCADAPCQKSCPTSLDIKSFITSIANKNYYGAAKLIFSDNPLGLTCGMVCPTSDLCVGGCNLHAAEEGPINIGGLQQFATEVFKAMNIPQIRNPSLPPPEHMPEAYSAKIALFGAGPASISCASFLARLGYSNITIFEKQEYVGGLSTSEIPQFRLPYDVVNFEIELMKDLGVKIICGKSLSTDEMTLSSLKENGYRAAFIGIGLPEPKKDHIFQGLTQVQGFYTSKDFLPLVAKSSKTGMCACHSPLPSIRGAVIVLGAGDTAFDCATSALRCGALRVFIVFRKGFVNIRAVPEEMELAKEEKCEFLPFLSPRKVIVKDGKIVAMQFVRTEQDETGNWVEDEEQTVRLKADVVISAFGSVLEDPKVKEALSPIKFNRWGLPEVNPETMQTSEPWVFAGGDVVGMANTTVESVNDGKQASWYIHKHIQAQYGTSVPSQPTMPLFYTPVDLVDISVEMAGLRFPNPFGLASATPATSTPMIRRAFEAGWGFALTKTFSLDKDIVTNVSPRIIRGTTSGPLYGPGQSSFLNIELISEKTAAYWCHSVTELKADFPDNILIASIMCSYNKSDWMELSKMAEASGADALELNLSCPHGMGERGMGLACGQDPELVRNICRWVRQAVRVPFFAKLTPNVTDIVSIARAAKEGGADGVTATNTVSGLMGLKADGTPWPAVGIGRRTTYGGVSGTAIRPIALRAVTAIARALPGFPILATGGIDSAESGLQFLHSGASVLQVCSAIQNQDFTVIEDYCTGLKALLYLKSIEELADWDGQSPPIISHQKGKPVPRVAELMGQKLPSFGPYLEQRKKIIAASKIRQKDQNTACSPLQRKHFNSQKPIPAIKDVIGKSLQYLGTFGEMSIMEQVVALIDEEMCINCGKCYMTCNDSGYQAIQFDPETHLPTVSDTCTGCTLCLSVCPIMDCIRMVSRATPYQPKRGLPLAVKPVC
Description: The maximum effect occurred at about 0.1 mg/kg p.o. in rats, at 0.5 to 1 mg/kg s.c. in mice, and at approximately 1 mg/kg intravenously (i.v.) in dogs and probably represents total inactivation of uracil reductase. These doses elevated mouse, dog, and rat plasma uracil from about 3 uM to about 50-60 uM. […] The ED50 equals 0.01 mg/kg.

In the case of `C#Cc1c[nH]c(=O)[nH]c1=O` [5-ethynyluracil], the “plasma levels of 5-fluorouracil” value [1] is reported as “increased”, the “dose at which the maximum effect on plasma uracil and thymine occurred” value (uracil reductase; mice, s.c.) is reported as 0.5 to 1 mg/kg and the plasma uracil (uracil reductase; mouse, at dose of maximum effect, elevated from about 3 uM) is reported as 50 to 60 µM.
